From ChEMBL document CHEMBL5512693, “Improved Rigidin-Inspired Antiproliferative Agents with Modifications on the 7-Deazahypoxanthine C7/C8 Ring Systems” (J Med Chem, 2024) come the findings set out here.

Data set [1] relates to HeLa. Put plainly: Antiproliferative activity against human HeLa cells assessed as reduction in cell viability incubated for 48 hrs by MTT assay. Format: functional. In general terms: Formazan colour is commonly taken as a measure of viable cells.
Data set [2] concerns the target T1, Tubulin (Homo sapiens) (UniProt P68371+Q9H4B7+P0DPH7+P68366+Q13509+Q71U36+P04350+Q3ZCM7+P07437+P68363+Q9BQE3+Q6PEY2+Q13885+Q9BVA1+Q9BUF5). Put plainly: Inhibition of microtubule (unknown origin) polymerization at 25 uM by fluorescence- based assay relative to control. It is filed as protein-complex assay.
Data set [3] in a line: Solubility of the compound by laser nephelometry. It is filed as physicochemical.
For data set [4], the target named is T1, Tubulin (Homo sapiens). As to the kind of experiment: Induction of microtubule organization changes in human Hela cells assessed as decrease in spindle length at GI50 concentration incubated for 4 hrs by inverted microscopy. Format: cell-based.
For data set [5], the system named is HeLa. Put plainly: Induction of apoptosis in human HeLa cells assessed as total number of cells died at 20 uM measured upto 30 hrs by Annexin V labelling method relative to control. It is filed as functional.
A short description of data set [6]: Therapeutic index, ratio of GI50 for human PNT1A cells to GI50 for human HeLa cells. It is filed as toxicity. The note with it: PNT1A cells and HeLa cells, read-out: TI.
The subject of data set [7] is HeLa. Put plainly: Antimitotic effect in human HeLa cells expressing EGFP-tubulin assessed as chromosome congression defect by measuring correcting the syntelic attachment at 7.5 nM incubated for 4 hrs by live-cell imaging/inverted microscopy. It is filed as functional, cell-based.
Data set [8] relates to HeLa. As to the kind of experiment: Antimitotic effect in human HeLa cells expressing EGFP-tubulin assessed as chromosome congression defect by measuring progressing through mitosis to prolonged pro-metaphase arrest at 7.5 nM incubated for 4 hrs by immunolabelling based live-cell imaging/inverted microscopy. Format: functional.
The test system of data set [9] is HeLa. Put plainly: Antimitotic effect in human HeLa cells expressing EGFP-tubulin assessed as chromosome congression defect by measuring mitotic exit/cell death at 7.5 nM incubated for 4 hrs by immunolabelling based live-cell imaging/inverted microscopy. It is filed as functional.

SMILES strings stand for the structures. Converted amounts (≈) assume the structure as drawn. The source made the active and inactive calls. The calls are words filed in the database; no cut-off is given here.

The term GI50 denotes the concentration giving 50% growth inhibition. For `C#CCCCc1nc(=O)c2c(-c3cccc(Br)n3)c(C(=O)c3ccc(OCCOCC)cc3)[nH]c2[nH]1`, the GI50 in the data set on HeLa [1] came out at 22.4 nM.
By inhibition is commonly meant how much of the control response was suppressed. Read a low inhibition as a response near the control. Consider `C#CCCCc1nc(=O)c2c(-c3ccccc3)c(C(=O)c3ccccc3)[nH]c2[nH]1`, for which the inhibition against Tubulin (Homo sapiens) [2] came to 100%.
With `C#CCCCc1nc(=O)c2c(-c3ccccc3)c(C(=O)c3ccc(OCCN4CCCC4)cc3)[nH]c2[nH]1`, the solubility entry in data set [3] is recorded as “Soluble”.
Regarding `C#CCCCc1nc(=O)c2c(-c3ccccc3)c(C(=O)c3ccc(OCCN4CCOCC4)cc3)[nH]c2[nH]1`, on Tubulin (Homo sapiens) [2], the inhibition was determined as 100%. Moreover, the result on Tubulin (Homo sapiens) [4] was Active. In data set [3], the solubility entry was “Soluble”.
Broadly, the solubility (kinetic) is solubility judged after dilution from a stock solution rather than from solid. In the case of `C#CCCCc1nc(=O)c2c(-c3cc(F)cc(F)c3)c(C(=O)c3ccc(OCCOCC)cc3)[nH]c2[nH]1`, the outcome on Tubulin (Homo sapiens) [4] was Active. The Activity in the data set on HeLa [5] is listed as 85%. Moreover, the kinetic solubility in data set [3] came out at 14 µM (≈ 7.08 µg/mL).
Turning to `C#CCCCc1nc(=O)c2c(-c3ccccc3)c(C(=O)c3ccc(OCCOCC)cc3)[nH]c2[nH]1`, in [6], the selectivity ratio is 2. Moreover, the outcome in the data set with HeLa [7], in the data set on HeLa [8], on Tubulin (Homo sapiens) [4] and in the data set with HeLa [9] was Active. The inhibition against Tubulin (Homo sapiens) [2] is 100%. This molecule yielded a solubility (kinetic) in data set [3] of 14 µM (≈ 6.57 µg/mL).
In the case of `C#CCCCc1nc(=O)c2c(-c3ccccc3)c(C(=O)c3ccc(N4CCOCC4)cc3)[nH]c2[nH]1`, in [6], the selectivity ratio worked out at 2.
As to `C#CCCCc1nc(=O)c2c(-c3cccc(F)c3)c(C(=O)c3ccc(OCCOCC)cc3)[nH]c2[nH]1`, the selectivity ratio in data set [6] came to 2. At Tubulin (Homo sapiens) [2], this molecule displayed an inhibition of 100%. In addition, the result on Tubulin (Homo sapiens) [4] was Active. The Activity in the data set with HeLa [5] was 87%. For the same molecule, the GI50 with HeLa [1] is 16 nM. The molecule also came in with a solubility (kinetic) in [3] of 14 µM (≈ 6.83 µg/mL).
